Results from patent publication US7906522B2, “2-aminoquinazoline derivatives” (Kyowa Hakko Kirin Co., Ltd, priority 2005, dated 2011).

Assays:
[1] = target: T1, Activated human p38α (Homo sapiens, UniProt Q16539); assay: p38MAP kinase inhibition test; type: biochemical; settings: at a concentration of 1 μmol/L; substrate myelin basic protein, ATP 20 μmol/L, [γ-32P]ATP; read-out: enzyme inhibitory activity
T1 construct: purchased Upstate Biotechnology Inc. 14-251
How it was run: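 Radiometric kinase assay with myelin basic protein (20 μg/assay) as substrate, 20 μmol/L ATP plus [γ-32P]ATP, MOPS pH 7.2 with MgCl2 18.75 mmol/L. Reaction run 15 min at 30° C., stopped with phosphoric acid; 32P-MBP captured on phosphocellulose and counted by scintillation.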

T1 sequence (Q16539 whole entry): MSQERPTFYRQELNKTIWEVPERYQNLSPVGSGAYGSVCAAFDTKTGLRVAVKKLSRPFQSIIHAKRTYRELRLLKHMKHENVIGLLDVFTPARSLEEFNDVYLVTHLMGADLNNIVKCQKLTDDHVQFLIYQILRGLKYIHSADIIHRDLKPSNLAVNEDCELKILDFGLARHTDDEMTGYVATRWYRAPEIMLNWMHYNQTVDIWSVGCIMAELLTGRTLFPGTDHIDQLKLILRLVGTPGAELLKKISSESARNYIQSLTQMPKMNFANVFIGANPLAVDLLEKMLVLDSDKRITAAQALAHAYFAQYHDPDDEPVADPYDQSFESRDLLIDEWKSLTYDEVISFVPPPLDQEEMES

Structure (SMILES)	melting point	inhibition at 1 µM [1]
CC(C)Nc1ncc2cc(-c3cccc(NC(=O)c4ccnc(-c5ccc(F)cc5)c4)c3)c(O)cc2n1 [Compound 355, 6-{3-[2-(4-Fluorophenyl)pyridin-4-ylcarbonylamino]phenyl}-7-hydroxy-2-(isopropylamino)quinazoline]	243 to 245 °C	≥ 50%
Cc1ccc(-n2nc(C)cc2NC(=O)c2ccc(C)c(-c3cc4cnc(NC(C)C)nc4cc3O)c2)cc1 [Compound 357, 7-Hydroxy-2-isopropylamino-6-{2-methyl-5-[5-methyl-2-(4-methylphenyl)-2H-pyrazol-3-ylcarbamoyl]phenyl}quinazoline]	173 to 175 °C	≥ 50%
CC[C@H](C)Nc1ncc2cc(-c3cc(C(=O)NC4CC4)ccc3C)c(O)cc2n1 [Compound 361, (S)-2-(sec-Butylamino)-6-(5-cyclopropylcarbamoyl-2-methylphenyl)-7-hydroxyquinazoline]	153 °C	≥ 50%

Other lines, results leading:

melting point	inhibition at 1 µM [1]	Structure (SMILES)
183 to 184 °C	≥ 50%	CC[C@H](C)Nc1ncc2cc(-c3cccc(NC(=O)c4ccnc(N5CCOCC5)c4)c3)c(O)cc2n1 [Compound 363, (S)-2-(sec-butylamino)-7-hydroxy-6-{3-[(2-morpholinopyridin-4-yl)carbonylamino]phenyl}quinazoline]
210 °C	≥ 50%	CCC(CC)Nc1ncc2cc(-c3cc(C(=O)NC4CC4)ccc3C)c(O)cc2n1 [Compound 365, 6-(5-Cyclopropylcarbamoyl-2-methylphenyl)-2-(3-pentylamino)-7-hydroxyquinazoline]
152 °C	≥ 50%	CCC(CC)Nc1ncc2cc(-c3cccc(NC(=O)c4cccc(N(C)C)c4)c3)c(O)cc2n1 [Compound 366, 6-{3-[(3-Dimethylaminophenyl)carbonylamino]phenyl}-2-(3-pentylamino)-7-hydroxyquinazoline]
154 to 155 °C	≥ 50%	CCC(CC)Nc1ncc2cc(-c3cccc(NC(=O)c4ccnc(N5CCOCC5)c4)c3)c(O)cc2n1 [Compound 368, 2-(3-Pentylamino)-7-hydroxy-6-{3-[(2-morpholinopyridin-4-yl)carbonylamino]phenyl}quinazoline]
